From patent publication US20260027116A1, “Methods of Treating Chronic Graft-Versus-Host Disease Following Allogeneic Hematopoietic Stem Cell Transplantation” (Kadmon Corporation, LLC, priority 2022, published 2026)

Test system: lung function
Test: Example 1: percent predicted TLC change from baseline
Format: in vivo, human
Conditions: mean (SD)
Description: Change From Baseline in Percent Predicted Total Lung Capacity (TLC) at Each Specified Time Points. TLC is the volume of air in the lungs upon the maximum effort of inspiration. Baseline value was defined as valid and last non-missing value obtained within 28 days prior to participant receiving first study medication. EOT visit was performed within 3 days after the participant's last dose of study drug. […] Analysis was performed on mITT population. Here, ‘number analyzed’=participants with available data for each specified category. Here, ‘0’ in the number analyzed field signifies that none of the participants were available for the analysis at the specified time points.

CC(C)NC(=O)COc1cccc(-c2nc(Nc3ccc4[nH]ncc4c3)c3ccccc3n2)c1 [Belumosudil, 2-{3-[4-(1H-indazol-5-ylamino)-2-quinazolinyl]phenoxy}-N-(propan-2-yl) acetamide]
Change From Baseline in Percent Predicted Total Lung Capacity (TLC) (Cohort 2: 200 mg BID, Cycle 12, Day 1): 0.0 (—) Percent Predicted TLC
Change From Baseline in Percent Predicted Total Lung Capacity (TLC) (Cohort 2: 200 mg BID, Cycle 13, Day 1): −10.3 (18.7) Percent Predicted TLC
Change From Baseline in Percent Predicted Total Lung Capacity (TLC) (Cohort 2: 200 mg BID, Cycle 14, Day 1): −7.0 (—) Percent Predicted TLC
Change From Baseline in Percent Predicted Total Lung Capacity (TLC) (Cohort 2: 200 mg BID, Cycle 15, Day 1): −1.0 (5.6) Percent Predicted TLC
Change From Baseline in Percent Predicted Total Lung Capacity (TLC) (Cohort 2: 200 mg BID, Cycle 16, Day 1): −14.0 (12.7) Percent Predicted TLC
Change From Baseline in Percent Predicted Total Lung Capacity (TLC) (Cohort 2: 200 mg BID, Cycle 17, Day 1): −17.0 (11.4) Percent Predicted TLC
Change From Baseline in Percent Predicted Total Lung Capacity (TLC) (Cohort 2: 200 mg BID, Cycle 18, Day 1): −16.0 (8.5) Percent Predicted TLC
Change From Baseline in Percent Predicted Total Lung Capacity (TLC) (Cohort 2: 200 mg BID, Cycle 19, Day 1): −7.7 (10.5) Percent Predicted TLC
Change From Baseline in Percent Predicted Total Lung Capacity (TLC) (Cohort 2: 200 mg BID, Cycle 20, Day 1): −9.5 (16.3) Percent Predicted TLC
Change From Baseline in Percent Predicted Total Lung Capacity (TLC) (Cohort 2: 200 mg BID, Cycle 21, Day 1): −18.0 (—) Percent Predicted TLC
Change From Baseline in Percent Predicted Total Lung Capacity (TLC) (Cohort 2: 200 mg BID, Cycle 22, Day 1): −18.5 (6.4) Percent Predicted TLC
Change From Baseline in Percent Predicted Total Lung Capacity (TLC) (Cohort 2: 200 mg BID, Cycle 23, Day 1): −21.0 (19.8) Percent Predicted TLC
Change From Baseline in Percent Predicted Total Lung Capacity (TLC) (Cohort 2: 200 mg BID, Cycle 24, Day 1): −15.0 (—) Percent Predicted TLC
Change From Baseline in Percent Predicted Total Lung Capacity (TLC) (Cohort 2: 200 mg BID, Cycle 25, Day 1): −19.5 (13.4) Percent Predicted TLC
Change From Baseline in Percent Predicted Total Lung Capacity (TLC) (Cohort 2: 200 mg BID, Cycle 27, Day 1): −24.0 (12.7) Percent Predicted TLC
Change From Baseline in Percent Predicted Total Lung Capacity (TLC) (Cohort 2: 200 mg BID, Cycle 29, Day 1): −27.5 (21.9) Percent Predicted TLC
Change From Baseline in Percent Predicted Total Lung Capacity (TLC) (Cohort 2: 200 mg BID, Cycle 31, Day 1): −36.0 (—) Percent Predicted TLC
Change From Baseline in Percent Predicted Total Lung Capacity (TLC) (Cohort 2: 200 mg BID, Cycle 33, Day 1): −39.0 (—) Percent Predicted TLC
Change From Baseline in Percent Predicted Total Lung Capacity (TLC) (Cohort 2: 200 mg BID, Cycle 35, Day 1): −23.5 (16.3) Percent Predicted TLC
Change From Baseline in Percent Predicted Total Lung Capacity (TLC) (Cohort 2: 200 mg BID, EOT): −2.4 (15.0) Percent Predicted TLC
Change From Baseline in Percent Predicted Total Lung Capacity (TLC) (Cohort 3: 400 mg QD, Cycle 2, Day 1): −9.0 (13.4) Percent Predicted TLC
Change From Baseline in Percent Predicted Total Lung Capacity (TLC) (Cohort 3: 400 mg QD, Cycle 3, Day 1): −0.6 (14.8) Percent Predicted TLC
Change From Baseline in Percent Predicted Total Lung Capacity (TLC) (Cohort 3: 400 mg QD, Cycle 4, Day 1): 3.3 (14.0) Percent Predicted TLC
Change From Baseline in Percent Predicted Total Lung Capacity (TLC) (Cohort 3: 400 mg QD, Cycle 5, Day 1): −1.7 (11.2) Percent Predicted TLC
Change From Baseline in Percent Predicted Total Lung Capacity (TLC) (Cohort 3: 400 mg QD, Cycle 6, Day 1): −4.4 (11.6) Percent Predicted TLC
Change From Baseline in Percent Predicted Total Lung Capacity (TLC) (Cohort 3: 400 mg QD, Cycle 7, Day 1): −2.6 (13.4) Percent Predicted TLC
Change From Baseline in Percent Predicted Total Lung Capacity (TLC) (Cohort 3: 400 mg QD, Cycle 8, Day 1): −0.2 (12.9) Percent Predicted TLC
Change From Baseline in Percent Predicted Total Lung Capacity (TLC) (Cohort 3: 400 mg QD, Cycle 9, Day 1): −0.9 (15.8) Percent Predicted TLC
Change From Baseline in Percent Predicted Total Lung Capacity (TLC) (Cohort 3: 400 mg QD, Cycle 10, Day 1): 3.6 (14.7) Percent Predicted TLC
Change From Baseline in Percent Predicted Total Lung Capacity (TLC) (Cohort 3: 400 mg QD, Cycle 11, Day 1): −3.0 (19.7) Percent Predicted TLC
Change From Baseline in Percent Predicted Total Lung Capacity (TLC) (Cohort 3: 400 mg QD, Cycle 12, Day 1): −8.0 (14.2) Percent Predicted TLC
Change From Baseline in Percent Predicted Total Lung Capacity (TLC) (Cohort 3: 400 mg QD, Cycle 13, Day 1): −3.3 (17.6) Percent Predicted TLC
Change From Baseline in Percent Predicted Total Lung Capacity (TLC) (Cohort 3: 400 mg QD, Cycle 14, Day 1): −5.8 (16.5) Percent Predicted TLC
Change From Baseline in Percent Predicted Total Lung Capacity (TLC) (Cohort 3: 400 mg QD, Cycle 15, Day 1): −7.0 (12.0) Percent Predicted TLC
Change From Baseline in Percent Predicted Total Lung Capacity (TLC) (Cohort 3: 400 mg QD, Cycle 16, Day 1): −15.5 (9.5) Percent Predicted TLC
Change From Baseline in Percent Predicted Total Lung Capacity (TLC) (Cohort 3: 400 mg QD, Cycle 17, Day 1): −18.1 (15.6) Percent Predicted TLC
Change From Baseline in Percent Predicted Total Lung Capacity (TLC) (Cohort 3: 400 mg QD, Cycle 18, Day 1): 0.0 (13.9) Percent Predicted TLC
Change From Baseline in Percent Predicted Total Lung Capacity (TLC) (Cohort 3: 400 mg QD, Cycle 19, Day 1): −7.0 (5.4) Percent Predicted TLC
Change From Baseline in Percent Predicted Total Lung Capacity (TLC) (Cohort 3: 400 mg QD, Cycle 20, Day 1): −9.3 (15.4) Percent Predicted TLC
Change From Baseline in Percent Predicted Total Lung Capacity (TLC) (Cohort 3: 400 mg QD, Cycle 21, Day 1): −14.4 (24.0) Percent Predicted TLC
Change From Baseline in Percent Predicted Total Lung Capacity (TLC) (Cohort 3: 400 mg QD, Cycle 22, Day 1): −21.0 (14.1) Percent Predicted TLC
Change From Baseline in Percent Predicted Total Lung Capacity (TLC) (Cohort 3: 400 mg QD, Cycle 23, Day 1): −2.8 (18.8) Percent Predicted TLC
Change From Baseline in Percent Predicted Total Lung Capacity (TLC) (Cohort 3: 400 mg QD, Cycle 24, Day 1): −34.0 (—) Percent Predicted TLC
Change From Baseline in Percent Predicted Total Lung Capacity (TLC) (Cohort 3: 400 mg QD, Cycle 25, Day 1): −6.3 (24.1) Percent Predicted TLC
Change From Baseline in Percent Predicted Total Lung Capacity (TLC) (Cohort 3: 400 mg QD, Cycle 27, Day 1): −14.5 (24.7) Percent Predicted TLC
Change From Baseline in Percent Predicted Total Lung Capacity (TLC) (Cohort 3: 400 mg QD, Cycle 29, Day 1): 12.0 (14.1) Percent Predicted TLC
Change From Baseline in Percent Predicted Total Lung Capacity (TLC) (Cohort 3: 400 mg QD, Cycle 31, Day 1): 17.0 (—) Percent Predicted TLC
Change From Baseline in Percent Predicted Total Lung Capacity (TLC) (Cohort 3: 400 mg QD, Cycle 35, Day 1): 13.0 (—) Percent Predicted TLC
Change From Baseline in Percent Predicted Total Lung Capacity (TLC) (Cohort 3: 400 mg QD, Cycle 36, Day 1): −6.0 (—) Percent Predicted TLC
Change From Baseline in Percent Predicted Total Lung Capacity (TLC) (Cohort 3: 400 mg QD, Cycle 49, Day 1): 1.0 (—) Percent Predicted TLC
Change From Baseline in Percent Predicted Total Lung Capacity (TLC) (Cohort 3: 400 mg QD, EOT): −12.6 (20.1) Percent Predicted TLC
